Measured values as given in article PMC4022186 (Biochemistry, 2012).

Experiments:
[1] = molecular target: T1, E. coli QueD (CPH4 synthase) (Escherichia coli, UniProt P65870); assay: preparative conversion to [7R-D]-CPH4; assay type: biochemical; details: 5 μM QueD, 20 mM PIPES pH 7.4, 10 mM DTT, 18 h, H2O
[2] = molecular target: T1, E. coli QueD (CPH4 synthase); assay: preparative conversion to [[…]-2H]-CPH4; assay type: biochemical; details: 5 mM sepiapterin, 15 μM QueD, 20 mM PIPES, 99.9% D2O, 20 h

T1 sequence (P65870 whole entry): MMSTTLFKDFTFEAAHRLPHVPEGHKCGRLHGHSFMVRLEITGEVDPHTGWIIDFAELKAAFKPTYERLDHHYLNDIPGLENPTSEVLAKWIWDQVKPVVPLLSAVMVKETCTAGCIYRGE

Structure (SMILES)	preparative conversion to [7R-D]-CPH4; FT-ICR MS of product [1]	preparative conversion to [6-2H]-CPH4; FT-ICR MS of product [2]
Nc1nc2c(c(=O)[nH]1)N=C([C@H](O)[C@H](O)COP(=O)(O)OP(=O)(O)OP(=O)(O)O)CN2 [H2NTP]	The resulting H2NTP was converted to CPH4 in a reaction mixture	
C[C@H](O)C(=O)C1=Nc2c(nc(N)[nH]c2=O)NC1 [sepiapterin]		this reaction was used to prepare CPH4 containing deuterium at C-6
